The values that follow come from patent publication US20260240844A1, “INHIBITORS OF CHD1L AND USES THEREOF” (The Regents of the University of Colorado, a body corporate, priority 2023, published 2026).

Like-named read-outs stand apart in the source and are kept apart here.

For series [1], the system named is SW620 Parental cells. Description: SW620 Parental cell viability, combination with chemotherapy. It is filed as cell-based. To be noted: Homo sapiens, SW-620, SW620 cells, read-out: IC50 5-FU.
In series [2] the test system is CRC patient samples. Description: Tumor growth inhibition index of CRC patient samples. It is filed as in vivo. From the text:
Analytical measurements include tumor volume by caliper and survival. […] Using this information, 8 patient samples with diverse genetic background mutations, stage of cancer, site of cancer (primary vs metastatic) were initially selected (Table 2).

The subject of series [3] is HCT116 Parental cells. Description: HCT116 Parental cell viability, combination with chemotherapy. It is filed as cell-based. To be noted: Homo sapiens, HCT-116, HCT116 cells, read-out: IC50 5-FU.
Series [4] concerns the target T1, PARP1 (Homo sapiens, UniProt P09874). Description: PARP1 enzymatic (colorimetric) assay.
Method: First, a 96 well plate was coated with histones. Next, the biotinylated NAD^+ substrate was incubated with an activated DNA template, the inhibitor to test and the PARP1/2 enzyme for 1 h at RT. After that, the sample plate was treated with streptavidin-RP for 30 min at RT, followed by addition of the horseradish peroxidase (HRP) substrate until the colorimetric signal was developed. The EnVision plate reader (PerkinElmer) was used to measure the absorbance at 450 nm and the results were plotted and analyzed using GraphPad Prism.
The target of series [5] is T1, PARP1. Description: PARP1 trapping (in situ subcellular fractionation, immunofluorescence).
Method: PARP1/2 and CHD1L trapping—PARP1, PARP2 and CHD1L trapping were assessed. SUM149PT cells were plated at a density of 20,000 cells per well into clear bottom black 96-well plates (PerkinElmer). […] After 4 h incubation, cell media was aspirated and cells were treated for 10 min at 4° C. with cold cytoskeleton (CSK) buffer (10 mM PIPES pH=6.8, 300 mM sucrose, 200 mM NaCl, 3 mM MgCl2) supplemented with 0.6% Triton X-100. […] PARP1 (anti-PARP1 antibody, 1:2000, O/N, 4° C.), PARP2 (anti-PARP2, 1:1000, O/N, 4° C.) and CHD1L (anti-CHD1L, 1:1000, O/N, 4° C.) primary antibodies were then added in antibody dilution buffer (2% BSA in PBS) and incubated O/N at 4° C.
To study the accumulation of bound PARP1/2 on chromatin, in situ subcellular fractioning of SUM149PT cells co-treated with 0.01% methyl methanesulfonate (MMS) and the drug of interest was used, followed by immunofluorescence. […] The cells were exposed to anti-CHD1L and anti-PARP1 fluorescent antibodies, and the cells were subsequently imaged.
In series [6] the test system is SUM149 and MDA-MB-231 cells. Description: DDR biomarkers in breast cancer cells. It is filed as cell-based. To be noted: 4 μM. From the text:
(§1) Etoposide was used as a control to show upregulation of DDR pathway biomarkers.

Series [7] deals with Colo679 cells. Description: DDR biomarkers (pATM, RAD51, 53BP1, γ-H2AX) in Colo679 cells. It is filed as cell-based. To be noted: 4 μM.
From the text: as §1

Series [8] has as its system γ-H2AX in SW620 or SUM149PT cells. Description: DNA damage (γ-H2AX) immunofluorescence, Example 1. It is filed as cell-based. The text has this:
The percentage of DNA damage for each single agent dose and combination was plotted on a contour map (FIG. 6A). Each shade on the contour map represents a range of % DNA damage where dark orange is 100% and white is 0% DNA damage.

In series [9] the test system is SW620 M-phenotype mouse xenografts. Description: Irinotecan drug resistant SW620 M-phenotype mouse xenografts. It is filed as in vivo.
Series [10] can be described thus: Toxicity in mice. It is filed as in vivo.
From the text: Organs and blood were harvested and sent to the Colorado State University Flint Animal Cancer Center for histopathological analysis by an independent certified veterinary pathologist with expertise in cancer chemotherapy.
For series [11], the system named is HCT116 tumor organoids. Description: Viability of isolated EMT phenotype HCT116 tumor organoids. It is filed as cell-based. To be noted: Homo sapiens, HCT-116, 72 h.

T1 sequence (P09874 whole entry): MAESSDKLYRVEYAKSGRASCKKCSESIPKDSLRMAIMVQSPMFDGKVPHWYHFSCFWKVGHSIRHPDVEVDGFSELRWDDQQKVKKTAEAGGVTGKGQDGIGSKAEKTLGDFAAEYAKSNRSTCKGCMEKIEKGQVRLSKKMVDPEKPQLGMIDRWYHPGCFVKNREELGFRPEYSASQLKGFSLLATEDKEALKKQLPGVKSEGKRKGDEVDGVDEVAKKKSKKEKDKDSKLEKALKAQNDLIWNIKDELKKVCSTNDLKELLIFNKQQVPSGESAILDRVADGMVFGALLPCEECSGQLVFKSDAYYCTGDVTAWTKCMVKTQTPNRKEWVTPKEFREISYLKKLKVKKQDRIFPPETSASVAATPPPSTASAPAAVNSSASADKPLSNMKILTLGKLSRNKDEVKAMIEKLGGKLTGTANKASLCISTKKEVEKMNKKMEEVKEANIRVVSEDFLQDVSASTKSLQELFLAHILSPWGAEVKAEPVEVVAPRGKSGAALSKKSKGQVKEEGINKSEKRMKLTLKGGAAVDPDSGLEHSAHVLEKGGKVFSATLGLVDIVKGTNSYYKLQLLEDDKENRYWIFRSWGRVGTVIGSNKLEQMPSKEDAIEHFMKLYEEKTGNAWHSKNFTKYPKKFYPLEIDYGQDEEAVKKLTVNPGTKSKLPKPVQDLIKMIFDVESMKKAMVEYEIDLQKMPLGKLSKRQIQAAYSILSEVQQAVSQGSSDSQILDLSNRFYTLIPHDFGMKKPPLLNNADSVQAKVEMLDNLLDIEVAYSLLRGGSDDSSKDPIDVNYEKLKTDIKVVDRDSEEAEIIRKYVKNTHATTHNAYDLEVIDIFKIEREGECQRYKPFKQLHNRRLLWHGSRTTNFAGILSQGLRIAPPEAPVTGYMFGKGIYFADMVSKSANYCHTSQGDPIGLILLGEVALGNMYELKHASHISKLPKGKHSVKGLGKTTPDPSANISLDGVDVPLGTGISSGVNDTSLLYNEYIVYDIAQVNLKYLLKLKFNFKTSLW

As a reminder, the IC50 is the concentration that inhibits the measured activity by half. Take `O=c1[nH]cc(F)c(=O)[nH]1` [Compound 5-FU, 5-fluorouracil]: the IC50 in series [1] (Compound 11 0 μM) came to 20.8 µM; in series [1] (Compound 11 2 μM) it was 59.5 µM; in series [1] (Compound 11 2.25 μM), 54.4 µM; in [1] (Compound 11 2.5 μM), 47.7 µM; in [1] (Compound 12 2 μM), 41.4 µM; in series [1] (Compound 12 2.25 μM), 23.9 µM. The IC50 in series [1] (Compound 12 2.5 μM) was found to be 15.4 µM; in [3] (Compound 11 0 μM) it was 95.7 µM; in series [3] (Compound 11 2.5 μM), 192 µM; in series [3] (Compound 11 3 μM) it was 63.4 µM; in series [3] (Compound 11 3.5 μM), 43.2 µM; in series [3] (Compound 12 0 μM), 103 µM. In addition, the IC50 in [3] (Compound 12 5 μM) was found to be 34.6 µM; in series [3] (Compound 12 6 μM), 11.5 µM. The “5FU Response (tumor growth inhibition index)” value is given as 185.8% in series [2] (patient sample CRC001, Primary, KRAS); 77.3% in series [2] (patient sample CRC026, Metastatic); 107.8% in series [2] (patient sample CRC042, Primary, KRAS, TP53); 113.1% in series [2] (patient sample CRC102, Metastatic, KRAS).

As for `Cc1cc(Nc2ccc(NC(=O)Cc3cccs3)cc2)nc(N2CCCC2)n1` [Compound 6, N-(4-((6-methyl-2-(pyrrolidin-1-yl)pyrimidin-4-yl)amino)phenyl)-2-(thiophen-2-yl)acetamide], in series [4], the PARP1 enzyme activity entry was “does not have any effect on PARP1/2 activity”.

With `Cc1cc(Nc2ccc(NC(=O)Cc3cc(Br)cs3)cc2)nc(N2CCCC2)n1` [Compound 6.11, 2-(4-bromothiophen-2-yl)-N-(4-((6-methyl-2-(pyrrolidin-1-yl)pyrimidin-4-yl)amino)phenyl)acetamide], the “increase in PARP1 trapping” value in [5] (SUM149PT cells, 0.01% MMS, 4 h) is listed as 10 fold. Moreover, in series [5] (non-trapping doses of Compound 6.11 combined with olaparib), the “PARP1/2 trapping compared to olaparib alone” value is “significant increase in PARP1/2 trapping”. Further, in series [6], the “amounts of γ-H2AX and 53BP1” value is “overall decreases in the amounts of γ-H2AX and 53BP1”. Besides, in series [7], the “amount of 53BP1” value is “decrease the amount of 53BP1”, the “amount of RAD51” value was “increase the amount of RAD51”, the “amount of pATM” value was “minimal effect” and the γ-H2AX concentrations entry is on record as “decreased”. For the same molecule, the “mean synergy score (Bliss), DNA damage” value in series [8] (combined with 5FU) is listed as 23. Further, the “mean synergy score (Bliss), DNA damage” value in [8] (combined with SN38) amounted to 24. In addition, the “DNA damage (γ-H2AX) compared to vehicle” value in series [8] (single agent) is listed as “no significant DNA damage”. Also, the “inhibition of tumor growth vs irinotecan alone” value in [9] (Compound 6.11 5 mg/kg IP 1×/day + irinotecan 50 mg/kg 1×/week) is given as “significantly more effective at inhibiting tumor growth”. Besides, the “increase in mouse survival” value in series [9] (Compound 6.11 5 mg/kg IP 1×/day + irinotecan 50 mg/kg 1×/week vs irinotecan alone) was “about a month”. The “increase in mouse survival compared to irinotecan alone” value in [9] (low doses of Compound 6.11 combined with irinotecan, drug resistant CRC nude mouse xenografts) is recorded as 30 days. Also, in [10] (mice, 100 mg/kg Compound 6.11 daily for 30 days), the “toxicity by complete blood count (CBC) panel and H&E histopathology of liver, heart, bone marrow” value is given as “no toxicity”. Moreover, the toxicities entry in series [10] (mice, daily dosing up to 100 mg/kg, preliminary studies) is “no significant toxicities”. For the same molecule, the “toxicity by CBC chemistry and histology of liver, heart, bone marrow” value in [10] (nude mice, PO 100 mg/kg 1×/day 7-days/week, alone or combined with irinotecan) is “no toxicity”.

As to `O=C(c1cc(Cc2n[nH]c(=O)c3ccccc23)ccc1F)N1CCN(C(=O)C2CC2)CC1` [olaparib], the IC50 in [11] (combined with Compound 6, read-out: IC50 olaparib) is roughly 30 µM; in series [11] (olaparib alone) it was roughly 600 µM.
